# Measurements reported in US20230265151A1, “GIP/GLP1 CO-AGONIST COMPOUNDS” (priority 2020, published 2023).
# Read-outs that look alike come from different tables or passages of the source. Where a SMILES comes first, the peptide text is derived from it. Side-chain parts run from the residue outwards. [ ]: non-standard residue; d: D form. The star is where a group is joined. αMePhe(2-F) = C[C@](N)(Cc1ccccc1F)C(=O)O; C14 diacid = O=C(O)CCCCCCCCCCCCC(=O)*; αMeY = C[C@](N)(Cc1ccc(O)cc1)C(=O)O; αMeL = CC(C)C[C@](C)(N)C(=O)O; Orn = NCCC[C@H](N)C(=O)O; AEEA = NCCOCCOCC(=O)O; Aib = CC(C)(N)C(=O)O
# Assays:
# Format in all cases: cell-based
# hGIPR = molecular target: T1, hGIPR (Homo sapiens, UniProt P48546); test: Functional cAMP formation (HTRF) in HEK-293 clonal cells expressing hGIPR, 0.1% bovine casein, without or with 1.0% human serum albumin; conditions: for EC50: geometric mean
# T1 construct: expressed in transfected cells
# T1 sequence (P48546 22-466): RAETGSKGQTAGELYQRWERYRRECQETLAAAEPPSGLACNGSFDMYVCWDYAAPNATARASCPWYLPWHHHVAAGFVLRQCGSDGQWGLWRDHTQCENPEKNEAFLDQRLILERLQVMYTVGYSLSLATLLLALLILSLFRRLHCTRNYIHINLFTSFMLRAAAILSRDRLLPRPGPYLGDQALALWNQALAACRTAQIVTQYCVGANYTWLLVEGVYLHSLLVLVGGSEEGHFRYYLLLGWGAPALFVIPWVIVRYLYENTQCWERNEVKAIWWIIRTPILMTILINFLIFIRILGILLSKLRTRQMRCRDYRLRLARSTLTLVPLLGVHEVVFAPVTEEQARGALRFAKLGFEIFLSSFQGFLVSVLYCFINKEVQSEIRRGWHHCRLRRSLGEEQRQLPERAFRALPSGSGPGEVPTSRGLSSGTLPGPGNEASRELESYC
# Procedure, shortened: (§1)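 Cells were stimulated with peptide for 30 min at 37° C, then intracellular cAMP was measured by competitive HTRF (665/620 nm ratio) and converted to nM using a cAMP standard curve. Relative EC50 and Emax came from four-parameter logistic fits of percent maximal response against peptide concentration.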
# hGCGR = molecular target: T2, hGCGR (Homo sapiens, UniProt P47871); test: Functional cAMP formation (HTRF) in HEK-293 clonal cells expressing hGCGR, 0.1% bovine casein, without or with 1.0% human serum albumin; conditions: geometric mean
# T2 construct: expressed in transfected cells
# T2 sequence (P47871 26-477): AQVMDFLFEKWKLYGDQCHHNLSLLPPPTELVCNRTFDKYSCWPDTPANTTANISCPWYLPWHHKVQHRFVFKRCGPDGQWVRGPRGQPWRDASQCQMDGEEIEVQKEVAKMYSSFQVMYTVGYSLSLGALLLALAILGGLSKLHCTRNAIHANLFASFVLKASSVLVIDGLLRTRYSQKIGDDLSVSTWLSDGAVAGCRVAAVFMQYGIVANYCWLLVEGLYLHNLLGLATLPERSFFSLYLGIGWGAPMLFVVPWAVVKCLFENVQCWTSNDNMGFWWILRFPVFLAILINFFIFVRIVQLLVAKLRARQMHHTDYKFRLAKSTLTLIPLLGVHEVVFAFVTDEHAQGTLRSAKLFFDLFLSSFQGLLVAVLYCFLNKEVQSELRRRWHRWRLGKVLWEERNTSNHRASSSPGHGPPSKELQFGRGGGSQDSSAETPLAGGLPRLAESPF
# Procedure, shortened: as §1
# hGLP-1R = hGLP-1R (Homo sapiens, UniProt P43220); test: Functional cAMP formation (HTRF) in HEK-293 clonal cells expressing hGLP-1R, 0.1% bovine casein, without or with 1.0% human serum albumin; set-up: expressed in transfected cells; conditions: for EC50: cAMP, incubated at 37° C., 0.1% bovine casein (no human serum albumin), geometric mean, read-out: hGLP-1R EC50, nM (SEM, n)
# Sequence of hGLP-1R (P43220 24-463): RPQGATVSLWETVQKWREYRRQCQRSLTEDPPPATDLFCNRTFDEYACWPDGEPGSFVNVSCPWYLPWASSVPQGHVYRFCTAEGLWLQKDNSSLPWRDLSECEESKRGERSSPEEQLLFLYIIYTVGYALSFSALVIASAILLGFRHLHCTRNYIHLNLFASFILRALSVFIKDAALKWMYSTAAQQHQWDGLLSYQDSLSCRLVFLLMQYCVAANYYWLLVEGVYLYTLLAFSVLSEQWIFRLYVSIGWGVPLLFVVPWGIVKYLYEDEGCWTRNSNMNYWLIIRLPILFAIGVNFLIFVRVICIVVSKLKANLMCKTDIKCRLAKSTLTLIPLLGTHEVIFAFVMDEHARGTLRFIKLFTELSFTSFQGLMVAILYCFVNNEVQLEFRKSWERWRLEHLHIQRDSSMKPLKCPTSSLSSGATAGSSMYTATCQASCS
# Procedure, shortened: as §1
# [1] = HEK293, 0.1% bovine casein and 1.0% human serum albumin, 37° C., percent of maximal response to GIP(1-42)NH2, read-out: hGIPR Emax, % ± SEM
# [2] = cAMP, incubated at 37° C., 0.1% bovine casein (no human serum albumin), read-out: hGIPR EC50, nM (SEM, n)
# [3] = 0.1% bovine casein and 1.0% human serum albumin, 37° C., read-out: hGCGR EC50, nM (SEM, n)
# [4] = cAMP, incubated at 37° C., 0.1% bovine casein (no human serum albumin), read-out: hGCGR EC50, nM (SEM, n)
# [5] = HEK293, percent of maximal response to GLP-1(7-36)NH2, 37° C., 0.1% bovine casein, arithmetic mean, read-out: hGLP-1R Emax, % ± SEM
smiles,measurement,setting,value
CC[C@H](C)[C@H](NC(=O)[C@H](CCCN)NC(=O)[C@H](CC(=O)O)NC(=O)[C@H](CC(C)C)NC(=O)[C@](C)(CC(C)C)NC(=O)[C@@H](NC(=O)[C@H](CO)NC(=O)[C@H](Cc1ccncc1)NC(=O)[C@H](CC(=O)O)NC(=O)[C@H](CO)NC(=O)[C@@H](NC(=O)[C@](C)(Cc1ccccc1F)NC(=O)[C@@H](NC(=O)CNC(=O)[C@H](CCC(=O)O)NC(=O)C(C)(C)NC(=O)[C@@H](N)Cc1ccc(O)cc1)[C@@H](C)O)[C@@H](C)O)[C@@H](C)CC)C(=O)N[C@@H](C)C(=O)N[C@@H](CCC(N)=O)C(=O)NC(C)(C)C(=O)N[C@@H](CCCCNC(=O)COCCOCCNC(=O)COCCOCCNC(=O)CC[C@H](NC(=O)CCCCCCCCCCOc1ccc(C(=O)O)cc1)C(=O)O)C(=O)N[C@@H](Cc1ccccc1)C(=O)N[C@H](C(=O)N[C@H](CCC(=O)O)C(=O)N[C@@](C)(Cc1ccc(O)cc1)C(=O)N[C@@H](CC(C)C)C(=O)N[C@H](C(=O)N[C@@H](CCC(=O)O)C(=O)NCC(=O)NCC(=O)N1CCC[C@H]1C(=O)N[C@@H](CO)C(=O)N[C@@H](CO)C(=O)NCC(=O)N[C@@H](C)C(=O)N1CCC[C@H]1C(=O)N1CCC[C@H]1C(=O)N1CCC[C@H]1C(=O)N[C@@H](CO)C(=O)N[C@@H](CCCCNC(=O)COCCOCCNC(=O)COCCOCCNC(=O)CC[C@H](NC(=O)CCCCCCCCCCOc1ccc(C(=O)O)cc1)C(=O)O)C(N)=O)[C@@H](C)CC)[C@@H](C)CC [Example 288],Emax,"hGIPR; HEK293, read-out: hGIPR Emax, % ± SEM, 0.1% bovine casein and 1.0% human serum albumin, 37° C., percent of maximal response to GIP(1-42)NH2",85.2%
same,Emax,"hGIPR; HEK293, read-out: hGIPR Emax, % ± SEM, cAMP, 37° C., 0.1% bovine casein, percent of maximal response to GIP(1-42)NH2, arithmetic mean",110%
same,EC50,"hGIPR; hGIPR EC50, nM (SEM, n), cAMP, 37° C., 0.1% bovine casein (no human serum albumin)",0.0219 nM
same,EC50,"hGCGR; hGCGR EC50, nM (SEM, n), 0.1% bovine casein and 1.0% human serum albumin, 37° C.",> 9950 nM
same,EC50,"hGCGR; hGCGR EC50, nM (SEM, n), cAMP, 37° C., 0.1% bovine casein (no human serum albumin)",> 9950 nM
same,Emax,"hGLP-1R; HEK293, read-out: hGLP-1R Emax, % ± SEM, 0.1% bovine casein and 1.0% human serum albumin, 37° C., percent of maximal response to GLP-1(7-36)NH2",123%
CC[C@H](C)[C@H](NC(=O)[C@H](CCCN)NC(=O)[C@H](CC(=O)O)NC(=O)[C@H](CC(C)C)NC(=O)[C@](C)(CC(C)C)NC(=O)[C@@H](NC(=O)[C@](C)(CO)NC(=O)[C@H](Cc1ccncc1)NC(=O)[C@H](CC(=O)O)NC(=O)[C@H](CO)NC(=O)[C@@H](NC(=O)[C@](C)(Cc1ccccc1F)NC(=O)[C@@H](NC(=O)CNC(=O)[C@H](CCC(=O)O)NC(=O)C(C)(C)NC(=O)[C@@H](N)Cc1ccc(O)cc1)[C@@H](C)O)[C@@H](C)O)[C@@H](C)CC)C(=O)N[C@@H](C)C(=O)N[C@@H](CCC(N)=O)C(=O)NC(C)(C)C(=O)N[C@@H](CCCCNC(=O)COCCOCCNC(=O)COCCOCCNC(=O)CC[C@H](NC(=O)CCCCCCCCCCCCC(=O)O)C(=O)O)C(=O)N[C@@H](Cc1ccccc1)C(=O)N[C@H](C(=O)N[C@H](CCC(=O)O)C(=O)N[C@@](C)(Cc1ccc(O)cc1)C(=O)N[C@@H](CC(C)C)C(=O)N[C@H](C(=O)N[C@@H](CCCCNC(=O)COCCOCCNC(=O)COCCOCCNC(=O)CC[C@H](NC(=O)CCCCCCCCCCCCC(=O)O)C(=O)O)C(=O)NCC(=O)NCC(=O)N1CCC[C@H]1C(=O)N[C@@H](CO)C(=O)N[C@@H](CO)C(=O)NCC(=O)N[C@@H](C)C(=O)N1CCC[C@H]1C(=O)N1CCC[C@H]1C(=O)N1CCC[C@H]1C(=O)N[C@@H](CO)C(N)=O)[C@@H](C)CC)[C@@H](C)CC [Example 217],EC50,"hGIPR; 0.1% bovine casein and 1.0% human serum albumin, 37° C., read-out: hGIPR EC50, nM (SEM, n)",7.84 nM
same,Emax,hGIPR; [1],62.7%
same,Emax,"hGIPR; HEK293, percent of maximal response to GIP(1-42)NH2, 37° C., 0.1% bovine casein, arithmetic mean, read-out: hGIPR Emax, % ± SEM",95.5%
same,EC50,hGIPR; [2],0.0309 nM
same,EC50,hGCGR; [3],> 9950 nM
same,EC50,hGCGR; [4],> 9950 nM
same,Emax,"hGLP-1R; HEK293, 0.1% bovine casein and 1.0% human serum albumin, 37° C., percent of maximal response to GLP-1(7-36)NH2, read-out: hGLP-1R Emax, % ± SEM",118%
same,Emax,hGLP-1R; [5],88%
same,EC50,hGLP-1R,0.436 nM
CC[C@H](C)[C@H](NC(=O)[C@H](CC(C)C)NC(=O)[C@](C)(Cc1ccc(O)cc1)NC(=O)[C@@H](CCC(=O)O)NC(=O)[C@@H](NC(=O)[C@H](Cc1csc2ccccc12)NC(=O)[C@H](CCC(=O)O)NC(=O)C(C)(C)NC(=O)[C@H](CCC(N)=O)NC(=O)[C@H](C)NC(=O)[C@H](CCCCNC(=O)COCCOCCNC(=O)COCCOCCNC(=O)CC[C@H](NC(=O)CCCCCCCCCCCCC(=O)O)C(=O)O)NC(=O)[C@H](CCCN)NC(=O)[C@H](CC(=O)O)NC(=O)[C@H](CC(C)C)NC(=O)[C@](C)(CC(C)C)NC(=O)[C@@H](NC(=O)[C@H](CO)NC(=O)[C@H](Cc1ccncc1)NC(=O)[C@H](CC(=O)O)NC(=O)[C@H](CO)NC(=O)[C@@H](NC(=O)[C@](C)(Cc1ccccc1F)NC(=O)[C@@H](NC(=O)CNC(=O)[C@H](CCC(=O)O)NC(=O)C(C)(C)NC(=O)[C@@H](N)Cc1ccc(O)cc1)[C@@H](C)O)[C@@H](C)O)[C@@H](C)CC)[C@@H](C)CC)C(=O)N[C@@H](CCC(=O)O)C(=O)NCC(=O)NCC(=O)N[C@@H](CCCCNC(=O)COCCOCCNC(=O)COCCOCCNC(=O)CC[C@H](NC(=O)CCCCCCCCCCCCC(=O)O)C(=O)O)C(=O)N[C@@H](CO)C(=O)N[C@@H](CO)C(=O)NCC(=O)N[C@@H](C)C(=O)N1CCC[C@H]1C(=O)N1CCC[C@H]1C(=O)N1CCC[C@H]1C(=O)N[C@@H](CO)C(N)=O [Example 147],EC50,hGIPR; [2],0.0229 nM
same,EC50,hGCGR; [4],> 9950 nM
same,Emax,hGLP-1R; [5],93.5%
same,EC50,hGLP-1R,0.338 nM
CC[C@H](C)[C@H](NC(=O)[C@H](CCCN)NC(=O)[C@H](CC(=O)O)NC(=O)[C@H](CC(C)C)NC(=O)[C@](C)(CC(C)C)NC(=O)[C@@H](NC(=O)[C@H](CO)NC(=O)[C@H](Cc1ccc(OC)cc1)NC(=O)[C@H](CC(=O)O)NC(=O)[C@H](CO)NC(=O)[C@@H](NC(=O)[C@](C)(Cc1ccccc1F)NC(=O)[C@@H](NC(=O)CNC(=O)[C@H](CCC(=O)O)NC(=O)C(C)(C)NC(=O)[C@@H](N)Cc1ccc(O)cc1)[C@@H](C)O)[C@@H](C)O)[C@@H](C)CC)C(=O)N[C@@H](C)C(=O)N[C@@H](CCC(N)=O)C(=O)NC(C)(C)C(=O)N[C@@H](CCCCNC(=O)COCCOCCNC(=O)COCCOCCNC(=O)CCCCCCCCCCCCC(=O)O)C(=O)N[C@@H](Cc1ccccc1)C(=O)N[C@H](C(=O)N[C@H](CCC(=O)O)C(=O)N[C@@](C)(Cc1ccc(O)cc1)C(=O)N[C@@H](CC(C)C)C(=O)N[C@H](C(=O)N[C@@H](CCC(=O)O)C(=O)NCC(=O)NCC(=O)N1CCC[C@H]1C(=O)N[C@@H](CO)C(=O)N[C@@H](CO)C(=O)NCC(=O)N[C@@H](C)C(=O)N1CCC[C@H]1C(=O)N1CCC[C@H]1C(=O)N1CCC[C@H]1C(=O)N[C@@H](CO)C(=O)N[C@@H](CCCCNC(=O)COCCOCCNC(=O)COCCOCCNC(=O)CCCCCCCCCCCCC(=O)O)C(N)=O)[C@@H](C)CC)[C@@H](C)CC [Example 268] (H-Y[Aib]EGT[αMePhe(2-F)]TSDY(Me)SI[αMeL]LD[Orn]IAQ[Aib]K([AEEA-AEEA-C14 diacid])FI[dE][αMeY]LIEGGPSSGAPPPSK([AEEA-AEEA-C14 diacid])-NH2),Emax,hGIPR; [1],92.3%
same,EC50,"hGIPR; cAMP, 37° C., 0.1% bovine casein (no human serum albumin), read-out: hGIPR EC50, nM (SEM, n)",0.0265 nM
same,EC50,hGCGR; [3],> 9950 nM
same,EC50,"hGCGR; cAMP, 37° C., 0.1% bovine casein (no human serum albumin), read-out: hGCGR EC50, nM (SEM, n)",> 9950 nM
same,Emax,"hGLP-1R; HEK293, cAMP, 37° C., 0.1% bovine casein, percent of maximal response to GLP-1(7-36)NH2, arithmetic mean, read-out: hGLP-1R Emax, % ± SEM",112%
